Reference: the NIST ThermoML archive (doi:10.1021/je700096m)

Test: xn = mol fraction of the nth substance listed
Conditions: 298.15 K, Liquid

CCCCCl [1-chlorobutane] + CC(=O)N(C)C
mass density [kg/m3]
Conditions | x2 = 0.0967 | x2 = 0.2105 | x2 = 0.2984 | x2 = 0.4019 | x2 = 0.499 | x2 = 0.5947 | x2 = 0.6992 | x2 = 0.7997 | x2 = 0.9015
100 kPa | 885.6 | 891.8 | 896.7 | 902.5 | 908.1 | 913.3 | 919.2 | 924.7 | 930.4
2000 kPa | 887.5 | 893.6 | 898.4 | 904.1 | 909.6 | 914.8 | 920.6 | 925.9 | 931.6
4000 kPa | 889.5 | 895.5 | 900.1 | 905.8 | 911.2 | 916.2 | 922.1 | 927.3 | 932.9
6000 kPa | 891.4 | 897.2 | 901.9 | 907.45 | 912.7 | 917.8 | 923.4 | 928.7 | 934.1
8000 kPa | 893.3 | 899.1 | 903.6 | 909 | 914.2 | 919.2 | 924.8 | 930 | 935.5
10000 kPa | 895.3 | 900.9 | 905.3 | 910.9 | 915.8 | 920.7 | 926.2 | 931.3 | 936.7
11900 kPa | – | – | – | 912.3 | – | – | – | – | –
12000 kPa | 897.1 | 902.6 | 907 | – | 917.3 | 922.1 | 927.6 | 932.6 | 937.9
13900 kPa | – | – | – | 913.9 | – | – | – | – | –
14000 kPa | 898.9 | 904.4 | 908.6 | – | 918.8 | 923.5 | 929 | 933.8 | 939
15900 kPa | – | – | – | – | – | – | – | 935.1 | –
16000 kPa | 900.6 | 906.1 | 910.2 | 915.4 | 920.2 | 924.8 | 930.3 | – | 940.3
17900 kPa | 902.3 | 907.6 | – | – | – | – | – | 936.2 | –
18000 kPa | – | – | 911.7 | 916.9 | 921.6 | 926.2 | 931.5 | – | 941.5
20000 kPa | 904.2 | 909.3 | – | – | – | – | 932.9 | 937.7 | 942.6
20100 kPa | – | – | 913.5 | 918.5 | 923.1 | 927.6 | – | – | –

CCCCCl [1-chlorobutane] + CN(C)C=O
mass density [kg/m3]
Conditions | x2 = 0.0998 | x2 = 0.1981 | x2 = 0.2988 | x2 = 0.4019 | x2 = 0.501 | x2 = 0.6087 | x2 = 0.7008 | x2 = 0.8163 | x2 = 0.9007
100 kPa | 885.5 | 890.7 | 896.3 | 902.3 | 908.6 | 915.5 | 921.8 | 930.2 | 936.6
2000 kPa | 887.4 | 892.5 | 898 | 903.9 | 910.1 | 917 | 923.1 | 931.5 | 937.8
4000 kPa | 889.3 | 894.4 | 899.8 | 905.7 | 911.7 | 918.5 | 924.6 | 932.8 | 939.1
6000 kPa | 891.2 | 896.3 | 901.6 | 907.3 | 913.3 | 920 | 926 | 934.2 | 940.3
7900 kPa | – | – | – | – | – | – | 927.5 | – | –
8000 kPa | 893.1 | 898.1 | 903.3 | 908.9 | 914.9 | 921.5 | – | 935.4 | 941.5
10000 kPa | 895.1 | 900 | 905.1 | 910.7 | 916.6 | 923 | 928.8 | 936.8 | 942.9
11900 kPa | – | – | – | – | 918 | – | – | – | –
12000 kPa | 896.9 | 901.6 | 906.8 | 912.2 | – | 924.4 | 930.3 | 938.1 | 944.1
14000 kPa | 898.6 | 903.4 | 908.4 | 913.8 | 919.5 | 925.9 | 931.7 | 939.3 | 945.3
16000 kPa | 900.4 | 905.1 | 910.1 | 915.3 | 921 | 927.21 | 933 | 940.6 | 946.4
18000 kPa | 902.1 | 906.8 | 911.7 | 916.7 | 922.4 | – | 934.3 | 941.8 | 947.5
18100 kPa | – | – | – | – | – | 928.6 | – | – | –
20000 kPa | 903.8 | 908.7 | 913.1 | 918.3 | 924 | 930.2 | 935.6 | 943.3 | 949.1

CCCCCCCl [1-chlorohexane] + CC(=O)N(C)C
mass density [kg/m3]
Conditions | x2 = 0.0952 | x2 = 0.2003 | x2 = 0.3011 | x2 = 0.4036 | x2 = 0.503 | x2 = 0.6051 | x2 = 0.6992 | x2 = 0.8013 | x2 = 0.8996
100 kPa | 877.1 | 881.6 | 886.4 | 891.9 | 897.5 | 903.8 | 910.4 | 918.4 | 926.8
2000 kPa | 878.7 | 883.2 | 888 | 893.41 | 899 | 905.2 | 911.7 | 919.7 | 928.1
4000 kPa | 880.4 | 884.8 | 889.5 | 895 | 900.4 | 906.7 | 913.1 | 921 | 929.3
6000 kPa | 882 | 886.4 | 891.2 | 896.5 | 901.9 | 908.1 | 914.5 | 922.3 | 930.5
8000 kPa | 883.6 | 888 | 892.7 | 898 | 903.4 | 909.5 | 915.9 | 923.6 | 931.7
10000 kPa | 885.3 | 889.6 | 894.3 | 899.6 | 904.9 | 910.9 | 917.3 | 925 | 933.1
11900 kPa | – | – | – | – | – | – | 918.6 | – | –
12000 kPa | 886.8 | 891.2 | 895.8 | 901 | 906.3 | 912.3 | – | 926.3 | 934.3
14000 kPa | 888.4 | 892.78 | 897.2 | 902.4 | 907.6 | 913.6 | 919.9 | 927.5 | 935.5
16000 kPa | 889.9 | 894.1 | 898.7 | 903.8 | 909 | 914.9 | 921.2 | 928.7 | 936.6
18000 kPa | 891.3 | 895.6 | 900.1 | 905.2 | 910.3 | 916.2 | 922.6 | 929.9 | 937.7
20000 kPa | 892.9 | 897.2 | 901.8 | – | 911.8 | 917.7 | 924 | 931.3 | –
20100 kPa | – | – | – | 906.8 | – | – | – | – | 939
